Source: patent US20130116219A1, “ANTIMICROBIAL CARBOLINE COMPOUNDS” (ALCON RESEARCH, LTD., priority 2011, published 2013)
In brackets after ≈: the same amount, converted by molar mass.

What was measured:
Ad5 [1] = experiment: Ad5 genome replication assay (cell-based QPCR) in A549 cells; conditions: Human adenovirus sp., A549, 72 h, read-out: Ad5 qPCR EC50 (μM)
Procedure: Compounds of the present invention were tested for potency against Ad5 in an Ad5 genome replication assay, a cell-based QPCR assay of Ad5 genome replication in A549 cells, a human lung carcinoma cell line. Serotype of human Ad5, used in this replication assay can also replicate in a NZW rabbit model of adenoviral ocular keratitis.
EC50 values (μM) for inhibition of adenoviral replication were determined by QPCR. Briefly, 10,000 cultured A549 cells were inoculated with 25,000 pfu/well for 3 hrs in 2% FBS F12-K A549 culture media. Following inoculation, A549 cells were treated with log unit dilutions of compound of Formula I (˜10 μM thru˜10 pM) in 10% FBS F12-K culture media with 0.3% DMSO for an additional 3 days. Cell viability was assessed with Alamar Blue (10 μl/well for 2 hrs; fluorescence Ex353; Em595 nm). Plates were washed 3 times with 125 μl PBS, cell lysates were prepared for QPCR analysis using Cells to SNP kit (Life Technologies). Ad5 genome levels per cell were determined with RNaseP and Ad5 hexon Taqman Assays (Life Technologies). EC50, the concentration that inhibited Ad5 genome replication formation by 50%, was estimated from plots of Ad5 genomes/cell vs. compound concentration.

Ad3 = experiment: Plaque reduction assay in A549 cells, Ad3; assay type: cell-based; conditions: unidentified adenovirus, 168 h, approximately 7 d, read-out: Adenovirus Serotype EC50 (μg/mL) Ad3
Procedure: (§1) Compounds of the present invention were tested for potency against AdV serotypes Ad3, Ad4, Ad5, Ad7a, Ad8, Ad19, and Ad37 in a plaque reduction assay, a cell-based assay of AdV replication. Ad8, Ad19, and Ad37 are the serotypes most commonly associated with epidemic keratoconjunctivitis (EKC). Ad3, Ad4, and Ad7a are serotypes most commonly associated with follicular conjunctivitis and serotype Ad5 can replicate in the NZW rabbit model of adenoviral ocular keratitis. Ad3, Ad4, Ad5, Ad7a, Ad8, and Ad19 were recovered at the Charles T. Campbell Ophthalmic Microbiology Laboratory from patients presenting with typical adenoviral ocular disease. No clinical isolates of Ad37 were available, so the ATCC (American Type Culture Collection, Manassas, Va.) reference strain of Ad37 was used.
(§2) EC50 values (μg/ml) for inhibition of adenoviral replication were determined by plaque reduction assay. Briefly, cultured A549 cells were inoculated with approximately 100 pfu of the indicated adenovirus serotype. Inoculated cells were overlaid with methylcellulose medium containing Compound 2 at 100, 10, 1, 0.1, 0.01, and 0.001 μg/ml, and incubated at 37° C./5% CO2 for approximately 7 d. Plates were stained with gentian violet, and plaques were counted in a 25× dissecting microscope. IC50, the concentration that inhibited plaque formation by 50%, was estimated from plots of mean plaque count vs. concentration.

Ad4 = experiment: Plaque reduction assay in A549 cells, Ad4; assay type: cell-based; conditions: unidentified adenovirus, 168 h, approximately 7 d, read-out: Adenovirus Serotype EC50 (μg/mL) Ad4
Procedure: as §1, §2

Ad5 [2] = experiment: Plaque reduction assay in A549 cells, Ad5; assay type: cell-based; conditions: unidentified adenovirus, A549, 168 h, read-out: Adenovirus Serotype EC50 (μg/mL) Ad5
Procedure: as §1, §2

Ad7a = experiment: Plaque reduction assay in A549 cells, Ad7a; assay type: cell-based; conditions: unidentified adenovirus, 168 h, approximately 7 d, read-out: Adenovirus Serotype EC50 (μg/mL) Ad7a
Procedure: as §1, §2

Ad8 = experiment: Plaque reduction assay in A549 cells, Ad8; assay type: cell-based; conditions: unidentified adenovirus, A549, 168 h, read-out: Adenovirus Serotype EC50 (μg/mL) Ad8
Procedure: as §1, §2

Ad19 = experiment: Plaque reduction assay in A549 cells, Ad19; assay type: cell-based; conditions: unidentified adenovirus, 168 h, approximately 7 d, read-out: Adenovirus Serotype EC50 (μg/mL) Ad19
Procedure: as §1, §2

Ad37 = experiment: Plaque reduction assay in A549 cells, Ad37; assay type: cell-based; conditions: unidentified adenovirus, 168 h, approximately 7 d, ATCC reference strain, read-out: Adenovirus Serotype EC50 (μg/mL) Ad37
Procedure: as §1, §2

| SMILES | EC50 (Ad5 [1]) | EC50 (Ad3) | EC50 (Ad4) | EC50 (Ad5 [2]) | EC50 (Ad7a) | EC50 (Ad8) | EC50 (Ad19) | EC50 (Ad37) |
| --- | --- | --- | --- | --- | --- | --- | --- | --- |
| CC(C)C[C@H]1c2[nH]c3ccc(Cl)cc3c2CCN1C(=O)C1CN(C2CC2)C1 [Compound 92, (S)-(6-chloro-1-isobutyl-3,4-dihydro-1H-pyrido[3,4-b]indol-2(9H)-yl)(1-cyclopropylazetidin-3-yl)methanone] | 0.1 to 1 µM | > 1 µg/mL | > 1 µg/mL | 0.1 to 1 µg/mL (≈ 0.259 to 2.59 µM) | 0.1 to 1 µg/mL (≈ 0.259 to 2.59 µM) | > 1 µg/mL | 0.1 to 1 µg/mL (≈ 0.259 to 2.59 µM) | 0.1 to 1 µg/mL (≈ 0.259 to 2.59 µM) |
| CC(C)C[C@H]1c2[nH]c3ccc(Cl)cc3c2CCN1C(=O)CNC1CC1 [Compound 91, (S)-1-(6-chloro-1-isobutyl-3,4-dihydro-1H-pyrido[3,4-b]indol-2(9H)-yl)-2-(cyclopropylamino)ethanone] | < 0.1 µM | 0.1 to 1 µg/mL (≈ 0.278 to 2.78 µM) | 0.1 to 1 µg/mL (≈ 0.278 to 2.78 µM) | < 0.1 µg/mL | 0.1 to 1 µg/mL (≈ 0.278 to 2.78 µM) | 0.1 to 1 µg/mL (≈ 0.278 to 2.78 µM) | 0.1 to 1 µg/mL (≈ 0.278 to 2.78 µM) | 0.1 to 1 µg/mL (≈ 0.278 to 2.78 µM) |
| CC(C)C[C@H]1c2[nH]c3ccc(Cl)cc3c2CCN1C(=O)C1CCN(C2CC2)CC1 [Compound 93, (S)-(6-chloro-1-isobutyl-3,4-dihydro-1H-pyrido[3,4-b]indol-2(9H)-yl)(1-cyclopropylpiperidin-4-yl)methanone] | 0.1 to 1 µM | 0.1 to 1 µg/mL (≈ 0.242 to 2.42 µM) | 0.1 to 1 µg/mL (≈ 0.242 to 2.42 µM) | 0.1 to 1 µg/mL (≈ 0.242 to 2.42 µM) | 0.1 to 1 µg/mL (≈ 0.242 to 2.42 µM) | 0.1 to 1 µg/mL (≈ 0.242 to 2.42 µM) | 0.1 to 1 µg/mL (≈ 0.242 to 2.42 µM) | 0.1 to 1 µg/mL (≈ 0.242 to 2.42 µM) |
| CC(C)C[C@H]1c2[nH]c3ccc(Cl)cc3c2CCN1C(=O)CCN1CC[C@H](F)C1 [Compound 35, 1-((S)-6-chloro-1-isobutyl-3,4-dihydro-1H-pyrido[3,4-b]indol-2(9H)-yl)-3-((S)-3-fluoropyrrolidin-1-yl)propan-1-one] | 0.1 to 1 µM | 0.1 to 1 µg/mL (≈ 0.246 to 2.46 µM) | > 1 µg/mL | 0.1 to 1 µg/mL (≈ 0.246 to 2.46 µM) | 0.1 to 1 µg/mL (≈ 0.246 to 2.46 µM) | 0.1 to 1 µg/mL (≈ 0.246 to 2.46 µM) | 0.1 to 1 µg/mL (≈ 0.246 to 2.46 µM) | 0.1 to 1 µg/mL (≈ 0.246 to 2.46 µM) |
| CC(C)C[C@H]1c2[nH]c3ccc(Cl)cc3c2CCN1C(=O)CCC1CCCCC1 [Compound 43, (S)-1-(6-chloro-1-isobutyl-3,4-dihydro-1H-pyrido[3,4-b]indol-2(9H)-yl)-3-cyclohexylpropan-1-one] | < 0.1 µM | 0.1 to 1 µg/mL (≈ 0.249 to 2.49 µM) | 0.1 to 1 µg/mL (≈ 0.249 to 2.49 µM) | < 0.1 µg/mL | < 0.1 µg/mL | < 0.1 µg/mL | < 0.1 µg/mL | < 0.1 µg/mL |
| CC(C)CC1c2[nH]c3ccc(Cl)cc3c2CCN1C(=O)CN1CCC(C(F)(F)F)CC1 (stereo not shown) [Compound 8] | 0.1 to 1 µM | – | – | – | – | – | – | – |
| CC(C)C[C@H]1c2[nH]c3ccc(Cl)cc3c2CCN1C(=O)CCN1CCC(F)CC1 [Compound 28, (S)-1-(6-chloro-1-isobutyl-3,4-dihydro-1H-pyrido[3,4-b]indol-2(9H)-yl)-3-(4-fluoropiperidin-1-yl)propan-1-one] | 0.1 to 1 µM | – | – | – | – | – | – | – |
| CC(C)CC1c2[nH]c3ccc(Cl)cc3c2CCN1C(=O)OCCN1CCC(F)(F)C1 (stereo not shown) [Compound 18] | 0.1 to 1 µM | – | – | – | – | – | – | – |
| CC(C)CC1c2[nH]c3ccc(Cl)cc3c2CCN1C(=O)CC1CCCO1 (stereo not shown) [Compound 42] | 0.1 to 1 µM | – | – | – | – | – | – | – |
| CC(C)CC1c2[nH]c3ccc(Cl)cc3c2CCN1C(=O)C1(C#N)CC1 (stereo not shown) [Compound 25] | > 1 µM | – | – | – | – | – | – | – |
| CC(C)CC1c2[nH]c3ccc(Cl)cc3c2CCN1C(=O)CN1CCC(F)(F)C1 (stereo not shown) [Compound 84] | 0.1 to 1 µM | – | – | – | – | – | – | – |
| CC(C)C[C@H]1c2[nH]c3ccc(Br)cc3c2CCN1C(=O)C1CCN(C2CC2)CC1 [Compound 97, (S)-(6-bromo-1-isobutyl-3,4-dihydro-1H-pyrido[3,4-b]indol-2(9H)-yl)(1-cyclopropylpiperidin-4-yl)methanone] | < 0.1 µM | 0.1 to 1 µg/mL (≈ 0.218 to 2.18 µM) | > 1 µg/mL | < 0.1 µg/mL | 0.1 to 1 µg/mL (≈ 0.218 to 2.18 µM) | < 0.1 µg/mL | 0.1 to 1 µg/mL (≈ 0.218 to 2.18 µM) | 0.1 to 1 µg/mL (≈ 0.218 to 2.18 µM) |
| CC(C)CC1c2[nH]c3ccc(Cl)cc3c2CCN1C(=O)CCc1ccccc1 (stereo not shown) [Compound 1] | 0.1 to 1 µM | – | – | – | – | – | – | – |
| CC(C)CC1c2[nH]c3ccc(Cl)cc3c2CCN1C(=O)C(C)(C)CN1CCC(F)(F)CC1 (stereo not shown) [Compound 33] | > 1 µM | – | – | – | – | – | – | – |
| CC(C)CC1c2[nH]c3ccc(Cl)cc3c2CCN1C(=O)Cc1ccccn1 (stereo not shown) [Compound 59] | > 1 µM | – | – | – | – | – | – | – |
| CC(C)CC1c2[nH]c3ccc(Cl)cc3c2CCN1C(=O)CCN1CCSCC1 (stereo not shown) [Compound 19] | 0.1 to 1 µM | – | – | – | – | – | – | – |
| O=C(CCC1CCCCC1)N1CCc2c([nH]c3ccc(Cl)cc23)C1CN1CCC(F)(F)CC1 (stereo not shown) [Compound 78, 1-(6-chloro-1-1((4,4-difluoropiperidin-1-yl)methyl)-3,4-dihydro-1H-pyrido[3,4-b]indol-2(9H)-yl)-3-cyclohexylpropan-1-one] | 0.1 to 1 µM | – | – | – | – | – | – | – |
| CC(C)CC1c2[nH]c3ccc(Cl)cc3c2CCN1C(=O)OCCN1CC(F)C1 (stereo not shown) [Compound 21] | > 1 µM | – | – | – | – | – | – | – |
| CC(C)CC1c2[nH]c3ccc(Cl)cc3c2CCN1C(=O)OCCN1CCC(CF)CC1 (stereo not shown) [Compound 24] | > 1 µM | – | – | – | – | – | – | – |
